Assay results from patent US6133294A (priority 1999, dated 2000).

What was measured:
Type in all cases: in vivo
Erysiphe graminis = test: Powdery Mildew of Wheat (Erysiphe graminis--ERYSGT); settings: wheat (cultivar Monon), 100 ppm spray to run off, inoculated after 24 hours; for pest or weed control at 100 ppm: Blumeria graminis, 1DP, read-out: control of plant disease, ERYSGT 1DP
Description: (§1) Compound Formulation: Compound formulation was accomplished by dissolving technical materials in acetone, with serial dilutions then made in acetone to obtain desired rates. Final treatment volumes were obtained by adding nine volumes 0.05% aqueous Tween-20 or Triton X-100, depending upon the pathogen.
Powdery Mildew of Wheat (Erysiphe graminis--ERYSGT): Wheat (cultivar Monon) was grown in a soilless peat-based potting mixture (Metromix) until the seedlings were 1-2 leaf (BBCH 12). These plants were then sprayed to run off with the test compound at a rate of 100 ppm. After 24 hours the test plants were inoculated with Erysiphe graminis by dusting spores from stock plants onto the test plants. The plants were then transferred to the greenhouse until disease developed on the untreated control plants.
(§2) the following table presents the activity of typical compounds of the present invention when evaluated in these experiments. The effectiveness of the test compounds in controlling disease was rated using the following scale: […]

Leptosphaeria nodorum = test: Glume blotch of wheat (Leptosphaeria nodorum--LEPTNO); settings: wheat (cultivar Monon), 100 ppm spray to run off, inoculated after 24 hours; for pest or weed control at 100 ppm: Parastagonospora nodorum, 1DP, read-out: control of plant disease, LEPTNO 1DP
Description: as §1
(§3) Glume blotch of wheat (Leptosphaeria nodorum--LEPTNO): Wheat (cultivar Monon) was grown from seed in a soilless peat-based potting mixture (Metromix) until the seedlings were 1-2 leaf (BBCH 12). These plants were then sprayed to run off with the test compound at a rate of 100 ppm. After 24 hours the test plants were inoculated with an aqueous spore suspension of Leptosphaeria nodorum. The plants were then transferred to the greenhouse until disease developed on the untreated control plants.
as §2

Phytophthora infestans = test: whole plant or invertebrate; settings: for pest or weed control at 100 ppm: Phytophthora infestans, 24 h, read-out: control of plant disease, PHYTIN 1DP
Puccinia recondita = test: Brown rust (Puccinia recondita--PUCCRT); settings: wheat (cultivar Monon), 100 ppm spray to run off, inoculated after 24 hours; for pest or weed control at 100 ppm: Puccinia recondita, 1DP, read-out: control of plant disease, PUCCRT 1DP
Description: as §1
as §3, with “Brown rust (Puccinia recondita--PUCCRT):” for “Glume blotch of wheat (Leptosphaeria nodorum--LEPTNO):”, “[…]).” for “1-2 leaf (BBCH 12).”, “Puccinia recondita.” for “Leptosphaeria nodorum.”
as §2

| SMILES | pest or weed control at 100 ppm (Erysiphe graminis) [%] | pest or weed control at 100 ppm (Leptosphaeria nodorum) [%] | pest or weed control at 100 ppm (Phytophthora infestans) [%] | pest or weed control at 100 ppm (Puccinia recondita) [%] | control of plant disease, ERYSGT 1DP (Erysiphe graminis) | control of plant disease, LEPTNO 1DP (Leptosphaeria nodorum) | control of plant disease, PHYTIN 1DP (Phytophthora infestans; tomatoes (cultivar Rutgers), 100 ppm spray to run off, inoculated after 24 hours, 1DP) | control of plant disease, PUCCRT 1DP (Puccinia recondita) |
| --- | --- | --- | --- | --- | --- | --- | --- | --- |
| CNC(=O)C(=NOC)c1ccccc1COc1ncc(-c2nc(C(F)(F)F)no2)cc1Cl [Example 68] | 75 to 100 | 75 to 100 | 0 to 24 | 75 to 100 | – | – | – | – |
| CNC(=O)C(=NOC)c1ccccc1COc1ncc(-c2nc(C(C)(C)C)no2)cc1Cl [Example 47, Benzeneacetamide, 2-[[[3-chloro-5-(3-t-butyl-1,2,4-oxadiazol-5-yl)-2-pyridinyl]oxy]methyl]-α-(methoxyimino)-N-methyl-] | 75 to 100 | 75 to 100 | 0 to 24 | 75 to 100 | – | – | – | – |
| CCc1noc(-c2cccc(OCc3ccccc3C(=NOC)C(=O)NC)n2)n1 [Example 83] | 25 to 74 | 75 to 100 | 75 to 100 | 75 to 100 | – | – | – | – |
| COC=C(C(=O)OC)c1ccccc1COc1ncc(-c2nc(C(C)(C)C)no2)cc1Cl [Example 100] | 25 to 74 | 25 to 74 | 75 to 100 | 75 to 100 | – | – | – | – |
| CNC(=O)C(=NOC)c1ccccc1COc1ncc(-c2nc(C3CC3)no2)cc1Cl [Example 53] | 75 to 100 | 25 to 74 | 75 to 100 | 75 to 100 | – | – | – | – |
| CNC(=O)C(=NOC)c1ccccc1COc1ncc(-c2nc(CSc3ccccc3)no2)cc1Cl [Example 58] | 75 to 100 | 75 to 100 | – | 75 to 100 | – | – | – | – |
| CNC(=O)C(=NOC)c1ccccc1COc1cccc(-c2nc(C(C)(C)C)no2)n1 [Example 84] | 25 to 74 | 75 to 100 | 75 to 100 | 75 to 100 | – | – | – | – |
| CNC(=O)C(=NOC)c1cccc(F)c1COc1ncc(-c2noc(C(F)(F)F)n2)cc1Cl [Example 32] | – | – | – | – | ++ (75-100% control of plant disease) | + (25-74% control of plant disease) | - (0-24% control of plant disease) | ++ (75-100% control of plant disease) |
| CCc1cc(-c2cnc(OCc3ccccc3C(=NOC)C(=O)NC)c(Cl)c2)no1 [Example 39] | 75 to 100 | 75 to 100 | 0 to 24 | 75 to 100 | – | – | – | – |
| CNC(=O)C(=NOC)c1ccccc1COc1ncc(-c2nnc(C)o2)cc1Cl [Example 3] | 75 to 100 | 75 to 100 | 75 to 100 | 75 to 100 | – | – | – | – |
| CNC(=O)C(=NOC)c1ccccc1COc1ccc(-c2noc(CSc3ccccc3)n2)cn1 [Example 28] | 75 to 100 | 75 to 100 | 75 to 100 | 75 to 100 | – | – | – | – |
| CNC(=O)C(=NOC)c1ccccc1COc1ncc(-c2noc(COC)n2)cc1Cl [Example 23] | 75 to 100 | 25 to 74 | 0 to 24 | 75 to 100 | – | – | – | – |
| CCCc1noc(-c2cnc(OCc3ccccc3C(=NOC)C(=O)NC)c(Cl)c2)n1 [Example 78] | 75 to 100 | 75 to 100 | 0 to 24 | 75 to 100 | – | – | – | – |
| CNC(=O)C(=NOC)c1ccccc1COc1ccc(-c2noc(-c3ccccc3)n2)cn1 [Example 12] | 75 to 100 | 75 to 100 | 75 to 100 | 75 to 100 | – | – | – | – |
| CNC(=O)C(=NOC)c1ccccc1COc1ncc(-c2cc(C(C)C)on2)cc1Cl [Example 38] | 75 to 100 | 75 to 100 | 0 to 24 | 75 to 100 | – | – | – | – |
| CNC(=O)C(=NOC)c1ccccc1COc1ccc(-c2noc(COC)n2)cn1 [Example 25] | 75 to 100 | 25 to 74 | 75 to 100 | 75 to 100 | – | – | – | – |
| CNC(=O)C(=NOC)c1ccccc1COc1ncc(-c2nc(COc3ccccc3)no2)cc1Cl [Example 57] | 75 to 100 | 25 to 74 | – | 75 to 100 | – | – | – | – |
| CNC(=O)C(=NOC)c1ccccc1COc1ccc(Cl)c(-c2nc(C(C)(C)C)no2)n1 [Example 82] | 75 to 100 | 75 to 100 | 75 to 100 | 75 to 100 | – | – | – | – |
